As usually defined, the inhibition is how much of the control response was suppressed. Lower therefore signals a response near the control.

This note sets out measurements from patent US6693166B1, “Cdk5—specific inhibitory peptides” (Hong Kong University of Science and Technology, priority 1999, dated 2004).

Where a SMILES comes first, the peptide text is derived from it. Where no end group is shown, it is not given here.

Experiment [1] addresses T1, GST-Cdk5.GST-Nck5a complex (Homo sapiens, UniProt Q00535).
T1 construct: made in house
The experiment can be described thus: Steady state kinetic analysis of Cdk5 inhibition (double reciprocal and Dixon plots). It is filed as biochemical. The procedure:
(§1) Peptide Inhibition of Cdk5 and Cdk2 Kinase Activity—Cdk5 kinase activity was assayed essentially as described previously, except that for each Cdk5 kinase reaction 1 μg of GST-Cdk5 was reconstituted with 2 μg of GST-Nck5a, and 1 μg of GST-Cdk2 was mixed with 3 μg of cyclin A-H6 in Cdk2 assays. The reconstituted complexes were added, in duplicate, to an assay mixture containing 30 mM MOPS, pH 7.4, 10 mM MgCl2, 40 μM of the histone H1 peptide, 50 μM [γ-^32P]ATP, and various concentrations of various peptides at 30° C. for 30 min before measuring the Cdk5 and Cdk2 kinase activities.
Steady State Kinetic Experiments—All assay conditions were the same as in the inhibition assay described above, except that the reaction time was kept at 15 min so that the product formed was less than 5% of the total substrate concentration used. To determine suitable concentrations of the substrate and the inhibitor for the steady state kinetic experiments, the Km value of GST-Cdk5.GST-Nck5a complex and a concentration-dependent inhibition profile of the enzyme by the αN peptide were determined. Four different concentrations of the histone H1 peptide (7.5, 10, 15, and 30 μM) were used in the kinetic analysis of the enzyme inhibition. For each substrate concentration, four concentrations of the αN peptide (0, 10, 20, and 30 μM) were used in the inhibition assay.

In experiment [2] the target is T2, GST-Cdk2-cyclin A-H6 complex (Homo sapiens, UniProt P24941).
T2 construct: made in house; host or cells: E. coli BL21(DE3) (cyclin A-H6); GST-Cdk2 not described
The experiment in a line: Peptide inhibition of Cdk2 kinase activity (histone H1 peptide, [γ-32P]ATP). It is filed as biochemical. The note with it: for inhibition of Cdk2 kinase activity (in words): GST-Cdk2.cyclin A-H6, FIG. 3B. Here is the method: The C-terminal histidine-tagged human cyclin A (cyclin A-H6) was expressed and purified in essentially the same manner as described for H6-Cdk5. Briefly, the expression plasmid pET21d containing a cyclin A gene lacking the N-terminal 173 amino acids was transformed into BL21(DE3) E. coli cells. The host cells were cultured in LB medium containing 100 μg/ml ampicillin, and cyclin A expression was induced by adding isopropyl-1-thio-β-D-galactopyranoside to a final concentration of 0.1 mM. The induction of cyclin A expression was for 3 h at 30° C. The pelleted cells were resuspended in 50 mM Tris-HCI, pH 7.5, 300 mM NaCl, and 0.05% Triton X-100, and then lysed in the French press. The subsequent purification of cyclin A using a Ni^2+-NTA column was carried out in a manner identical to that described for the purification of H6-Cdk5. The monomeric, active form of cyclin A-H6 was further purified by passing the cyclin A-H6-containing eluent through a Sephacryl S-200 gel filtration column (Amersham Pharmacia Biotech).
as §1

Experiment [3] addresses T2, GST-Cdk2-cyclin A-H6 complex. The experiment can be described thus: Peptide/Cdk binding assay: GSH-bead co-precipitation and Western blot of cyclin A. The note with it: various amounts of peptide (0.5, 2, 10 μM; 1000-fold excess). The procedure: The binding of the αN peptide to the GST-Cdk2-cyclin A-H6 complex was studied in a similar manner to that described above for H6-Cdk5. Briefly, 3 μg of GST-Cdk2 and 10 μg of cyclin A-H6 were reconstituted in Buffer R with various concentrations of the αN peptide at 4° C. for 15 h. GST-Cdk2 was then precipitated by the addition of 20 μl of GSH-Sepharose beads. After washing, the co-precipitated cyclin A-H6 was detected by SDS-PAGE followed by Western blot using a monoclonal antibody against cyclin A (Santa Cruz).
To discriminate between these possibilities, we performed direct binding competition experiments. Various concentrations of the peptides were added to a H6-Cdk5.GST-Nck5a mixture, and GST-Nck5a was then precipitated using GSH-agarose beads. The amount of H6-Cdk5 in complex with GST-Nck5a was determined by Western blotting of the enzyme co-precipitated by GSH-agarose beads. The amount of H6-Cdk5 and cyclin A-H6 used in the experiment described in FIG. 4, A and B, were chosen to ensure that their respective antibodies would be in excess.
(In general: A western blot detects proteins with antibodies after separation by electrophoresis.)

In experiment [4] the target is T1, GST-Cdk5.GST-Nck5a complex. The experiment in a line: Peptide inhibition of Cdk5 kinase activity (histone H1 peptide, [γ-32P]ATP). Type of experiment: biochemical. The note with it: for inhibition of Cdk5 kinase activity (in words): GST-Cdk5.GST-Nck5a, FIG. 2 and 3A. Here is the method:
as §1

Experiment [5] deals with T3, H6-Cdk5.GST-Nck5a complex (Homo sapiens, UniProt Q00535).
T3 construct: made in house; host or cells: Escherichia coli M15 (H6-Cdk5)
The experiment in a line: Peptide/Cdk binding assay: GSH-bead co-precipitation and Western blot of Cdk5. The note with it: various amounts of peptide (5, 20, 50 μM; 1000-fold excess). Here is the method:
Peptide/Cdk Binding Assay—H6-Cdk5 (about 3 μg) and 15 μg of GST-p25 were premixed in 300 μl of 1×phosphate-buffered saline with 0.5 mg/ml bovine serum albumin. Some 50-μl quantities of the mixture was taken out to mix with various concentrations of the αN peptide (from serial dilutions made from a 2.0 mM stock solution), and the total volume of the mixture was adjusted to 150 μl using Buffer R (1×phosphate-buffered saline containing 1 mM EDTA, 1 mM dithiothreitol, 0.6 mM phenylmethylsulfonyl fluoride, 1 μg/ml leupeptin, 1 μg/ml leupeptin, 1 μg/ml antipain, 5 mg/ml bovine serum albumin). The reaction mixture was incubated at 4° C for 15 h. GST-Nck5a-H6-Cdk5 complex was then precipitated by the addition of 40 μl of GSH-Sepharose beads pre-equilibrated with 1×phosphate-buffered saline (50%, v/v). The GSH-Sepharose beads were washed three times with 1×phosphate-buffered saline buffer, and subsequently resuspended in 20 μl of water and 20 μl of 2×protein sample treatment buffer. The co-precipitated H6-Cdk5 was detected by SDS-PAGE followed by Western blot using a monoclonal antibody against Cdk5.
To discriminate between these possibilities, we performed direct binding competition experiments. […] The amount of H6-Cdk5 in complex with GST-Nck5a was determined by Western blotting of the enzyme co-precipitated by GSH-agarose beads. […]

Where [6] appears, read: listed as Nck5a-derived peptide.

T1 sequence (Q00535 whole entry): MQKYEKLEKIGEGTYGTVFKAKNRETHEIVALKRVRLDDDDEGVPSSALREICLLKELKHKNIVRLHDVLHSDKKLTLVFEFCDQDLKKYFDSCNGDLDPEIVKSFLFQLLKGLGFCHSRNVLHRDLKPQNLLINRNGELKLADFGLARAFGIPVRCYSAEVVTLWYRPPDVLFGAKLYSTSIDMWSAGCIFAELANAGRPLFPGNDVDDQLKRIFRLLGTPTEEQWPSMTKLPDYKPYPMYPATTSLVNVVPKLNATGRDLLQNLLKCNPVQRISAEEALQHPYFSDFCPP
T1 sequence (Q15078 99-307 partner limits assumed): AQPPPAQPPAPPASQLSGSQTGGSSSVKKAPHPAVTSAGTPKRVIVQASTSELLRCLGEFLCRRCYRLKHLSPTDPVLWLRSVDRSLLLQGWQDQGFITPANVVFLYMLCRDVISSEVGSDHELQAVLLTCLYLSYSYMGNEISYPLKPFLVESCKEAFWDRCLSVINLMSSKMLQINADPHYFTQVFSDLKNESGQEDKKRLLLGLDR
T3 sequence (Q00535 whole entry): as the sequence (Q00535 whole entry) above
T3 sequence (Q15078 99-307 partner limits assumed): as the sequence (Q15078 99-307 partner limits assumed) above

As to `CC(C)C[C@H](NC(=O)[C@H](CS)NC(=O)[C@H](CCCNC(=N)N)NC(=O)[C@H](CC(C)C)NC(=O)[C@H](CC(C)C)NC(=O)[C@H](CCC(=O)O)NC(=O)[C@H](CO)NC(=O)[C@@H](NC(=O)[C@H](CO)NC(=O)[C@H](C)N)[C@@H](C)O)C(=O)NCC(=O)N[C@@H](CCC(=O)O)C(=O)N[C@@H](Cc1ccccc1)C(=O)N[C@@H](CC(C)C)C(=O)N[C@@H](CS)C(=O)N[C@@H](CCCNC(=N)N)C(=O)N[C@@H](CCCNC(=N)N)C(=O)N[C@@H](CS)C(=O)N[C@@H](Cc1ccc(O)cc1)C(=O)N[C@@H](CCCNC(=N)N)C(=O)N[C@@H](CC(C)C)C(=O)N[C@@H](CCCCN)C(=O)N[C@@H](Cc1c[nH]cn1)C(=O)N[C@@H](CC(C)C)C(=O)N[C@@H](CO)C(=O)N1CCC[C@H]1C(=O)N[C@H](C(=O)N[C@@H](CC(=O)O)C(=O)O)[C@@H](C)O` [αN peptide] (H-ASTSELLRCLGEFLCRRCYRLKHLSPTD-OH; N-terminus and C-terminus assumed), the “inhibition of the kinase by an excess amount of peptide” value in experiment [1] (400 μM peptide, data not shown) is “near complete inhibition”. Further, the “mode of inhibition with respect to the substrate (histone H1 peptide)” value in experiment [1] (double-reciprocal plot) is given as “noncompetitive inhibitor”. In addition, the inhibition at 0.5 µM in experiment [2] (0.5 μM peptide) came to 10%. The compound further returned an inhibition at 2 µM in experiment [2] (2 μM peptide) of 50%. In experiment [2] (10 μM peptide), the inhibition at 10 µM turned out to be 90%. For the same compound, the “inhibition of Cdk2 kinase activity (in words)” value in experiment [2] was “even higher potency than in the case with Cdk5.Nck5a inhibition”. For the same compound, the “dissociation of cyclin A from Cdk2 on addition of peptide” value in experiment [3] is on record as “formation of a ternary complex”; in experiment [3] (setting [6]), “does not lead to the dissociation of Nck5a from Cdk5 or cyclin A from Cdk2”. In experiment [4] (5 μM peptide, heading: inhibition of Cdk5 activity), this compound had an inhibition at 5 µM of 10%. In experiment [4] (20 μM peptide), this compound registered an inhibition at 20 µM of 50%. In experiment [4] (50 μM peptide), this compound yielded an inhibition at 50 µM of 90%. For the same compound, the “inhibition of Cdk5 activity” value in experiment [4] (50 μM peptide) was “about 90%”. In addition, the “effect of a large excess of GST-Nck5a on Cdk5 inhibition by the peptide” value in experiment [4] (50 μM peptide, 2, 20, 40 μg GST-p25 with 1 μg GST-Cdk5) was “no significant effect”. Moreover, the “dissociation of Nck5a from Cdk5 on addition of peptide” value in experiment [5] was “did not lead to a dissociation of GST-Nck5a from H6-Cdk5”; in experiment [5] (setting [6]), “does not lead to the dissociation of Nck5a from Cdk5”.

For “DYHDIHTYLREMEVKPKPKVGYMKKQPDIT (DYHEDIHTYLREMEVKCKPKVGYMKKQPDIT; listed as Homo sapiens) [cyclin A peptide, 31-residue peptide corresponding to Asp177 to Thr207 of human cyclin A, the N-terminal alpha-helix, reference compound]”, the “inhibition of Cdk2 kinase activity (in words)” value in experiment [2] is “inhibited neither GST-Cdk5.GST-Nck5a nor GST-Cdk2.cyclin A-H6”. For the same compound, in experiment [4], the “inhibition of Cdk5 kinase activity (in words)” value is “inhibited neither GST-Cdk5.GST-Nck5a nor GST-Cdk2.cyclin A-H6”.

On to “GST-αN: GST fusion mutant containing a 29-residue peptide fragment corresponding to residues Gln145 to Asp173 of Nck5a (QASTSELLRCLGEFLCRRCYRLKHLSPTD; cysteine pairing not given here; also: fused to GST)”, for which the “inhibition of Cdk2 kinase activity (in words)” value in experiment [2] is given as “also inhibited the kinase activity of Cdk2”. Further, the “inhibition of Cdk5 kinase activity (in words)” value in experiment [4] is given as “inhibit Cdk5 kinase activity in a dose-dependent manner”. In addition, the “Cdk5 kinase activity inhibited” value in experiment [4] (GST-αN concentration of 5 μM) was “About 50%”.
